Patent publication US7511145B2 (Genelabs Technologies, Inc., priority 2003, dated 2009)

Target: T1, HCV-NS5b (Hepatitis C virus genotype 1b, UniProt Q9WMX2)
T1 construct: (His)6 (C); made in house; host or cells: XL-1 cells (E. coli), IPTG-inducible plasmid, nickel-NTA purification
Assay: HCV-NS5b enzyme assay (incorporation of radiolabeled UTP)
Type: biochemical
Details: for inhibition at 100 µM: read-out: % inh@100, enzyme inhibition at compound concentration of 100 uM
Summary of the method: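 His6-tagged NS5b lacking the C-terminal 21 residues, expressed in XL-1 and Ni-NTA purified. Reaction at pH 7.5 with 5 mM MgCl2, 10 μM each NTP including [3H]-UTP and biotinylated HCV heteropolymeric template, 2 h at 37° C; SPA read-out; % inhibition at 100 and 33 uM versus no-compound control, background subtracted.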

[1] = enzyme inhibition at compound concentration of 33 uM

COc1ccc(-c2ccc(C(N)=O)cc2)c(-c2ccc3cc(-c4nc5cc(C(=O)O)ccc5n4C4CCCCC4)ccc3n2)c1 [Compound 382, 2-[2-(4′-carbamoyl-4-methoxy-biphen-2-yl)-quinolin-6-yl]-1-cyclohexyl-1H-benzoimidazole-5-carboxylic acid]
inhibition at 33 µM [1]: 101%
inhibition at 100 µM: 101%

Cc1oc(-c2ccc(Cl)cc2)cc1-c1ccc2cc(-c3nc4cc(C(=O)O)ccc4n3C3CCCCC3)ccc2n1 [Compound 505, 2-{2-[5-(4-chloro-phenyl)-2-methyl-furan-3-yl]-quinolin-6-yl}-1-cyclohexyl-1H-benzoimidazole-5-carboxylic acid]
inhibition at 33 µM [1]: 99.7%
inhibition at 100 µM: 102%

O=C(O)c1ccc2c(c1)nc(-c1ccc3nc(-c4cnn(-c5ccccc5)c4)ccc3c1)n2C1CCCCC1 [Compound 449, 1-cyclohexyl-2-[2-(1-phenyl-1H-pyrazol-4-yl)-quinolin-6-yl]-1H-benzoimidazole-5-carboxylic acid]
inhibition at 33 µM [1]: 99.8%
inhibition at 100 µM: 101%

COc1ccc(-c2ccc(Cl)cc2)c(-c2ccc3cc(-c4nc5cc(C(=O)O)ccc5n4C4CC5CCC4C5)ccc3n2)c1 (stereo not shown) [Compound 568, 1-bicyclo[2.2.1]hept-2-yl-2-[2-(4′-chloro-4-methoxy-biphen-2-yl)-quinolin-6-yl]1H-benzoimidazole-5-carboxylic acid]
inhibition at 33 µM [1]: 101%
inhibition at 100 µM: 100%

NC(=O)C[C@H](NC(=O)c1ccc2c(c1)nc(-c1ccc3nc(-c4ccccc4)cnc3c1)n2C1CCCCC1)C(=O)O [Compound 518, 2-{[1-Cyclohexyl-2-(2-phenyl-quinoxalin-6-yl)-1H-benzoimidazole-5-carbonyl]-amino}-succinamic acid]
inhibition at 33 µM [1]: 76%
inhibition at 100 µM: 97.8%

c1ccc(-c2cnc3cc(-c4nc5cc(-c6nn[nH]n6)ccc5n4C4CCCCC4)ccc3n2)cc1 [Compound 258, 6-[1-cyclohexyl-5-(1H-tetrazol-5-yl)-1H-benzimidazol-2-yl]-2-phenylquinoxaline]
inhibition at 33 µM [1]: 97%
inhibition at 100 µM: 98%

O=C(O)c1ccc2c(c1)nc(-c1ccc3nc(-c4cc(OCC(=O)N5CCCC5)ccc4-c4ccc(Cl)cc4)ccc3c1)n2C1CCCCC1 [Compound 376, 2-{2-[4′-Chloro-4-(2-oxo-2-pyrrolidin-1-yl-ethoxy)-biphen-2-yl]-quinolin-6-yl}-1-cyclohexyl-1H-benzoimidazole-5-carboxylic acid]
inhibition at 33 µM [1]: 97.4%
inhibition at 100 µM: 97.2%

COc1ccc(-c2nc3ccc(-c4nc5cc(C(=O)O)ccc5n4C4CCCCC4)cc3nc2-c2ccc(OC)cc2)cc1 [Compound 441, 2-[2,3-Bis-(4-methoxyphenyl)quinoxalin-6-yl]-1-cyclohexyl-1H-benzimidazole-5-carboxylic acid]
inhibition at 33 µM [1]: 97.3%
inhibition at 100 µM: 98.8%

CCOC(=O)c1cnc2c(c1)nc(-c1ccc3nc(-c4cc(O)ccc4-c4ccc(Cl)cc4)ccc3c1)n2C1CCCCC1 [Compound 538, 2-[2-(4′-chloro-4-hydroxy-biphen-2-yl)-quinolin-6-yl]-3-cyclohexyl-3H-imidazo[4,5-b]pyridine-6-carboxylic acid Ethyl Ester]
inhibition at 33 µM [1]: 56.6%
inhibition at 100 µM: 72.8%

COCCOc1ccc(-c2ccccc2)c(-c2ccc3cc(-c4nc5cc(C(=O)O)ccc5n4C4CCCCC4)ccc3n2)c1 [Compound 461, 1-Cyclohexyl-2-{2-[4-(2-methoxy-ethoxy)-biphen-2-yl]-quinolin-6-yl}-1H-benzoimidazole-5-carboxylic acid]
inhibition at 33 µM [1]: 97.9%
inhibition at 100 µM: 96.7%

O=C(O)[C@@H]1CCCN1C(=O)c1ccc2c(c1)nc(-c1ccc3nc(-c4ccccc4)ccc3c1)n2C1CCCCC1 [Compound 233, 1-[1-Cyclohexyl-2-(2-phenyl-quinolin-6-yl)-1H-benzoimidazole-5-carbonyl]-pyrrolidine-2-carboxylic acid]
inhibition at 33 µM [1]: 50%
inhibition at 100 µM: 88.2%

O=C(O)c1ccc2c(c1)nc(-c1ccc3nc(-c4ccccc4[N+](=O)[O-])ccc3c1)n2C1CCCCC1 [Compound 446]
inhibition at 33 µM [1]: 96.6%
inhibition at 100 µM: 101%

COc1ccc(-c2ccccc2C)c(-c2ccc3cc(-c4nc5cc(C(=O)O)ccc5n4C4CCCCC4)ccc3n2)c1 [Compound 548]
inhibition at 33 µM [1]: 103%
inhibition at 100 µM: 101%

O=C(O)c1ccc2c(c1)nc(-c1ccc3nc(-c4ccc(Oc5ccc(Cl)cc5)cc4Cl)ccc3c1)n2C1CCCCC1 [Compound 492, 2-{2-[2-chloro-4-(4-chloro-phenoxy)-phenyl]-quinolin-6-yl}-1-cyclohexyl-1H-benzoimidazole-5-carboxylic acid]
inhibition at 33 µM [1]: 99.2%
inhibition at 100 µM: 100%

Cc1oc2ccc(OCc3ccccc3)cc2c1-c1ccc2cc(-c3nc4cc(C(=O)O)ccc4n3C3CCCCC3)ccc2n1 [Compound 448, 2-[2-(5-benzyloxy-2-methyl-benzofuran-3-yl)-quinolin-6-yl]-1-cyclohexyl-1H-benzoimidazole-5-carboxylic acid]
inhibition at 33 µM [1]: 94.6%
inhibition at 100 µM: 96%

O=C(O)c1ccc2c(c1)nc(-c1ccc3nc(-c4ccccc4)cc(NCCCCO)c3c1)n2C1CCCCC1 [Compound 398, 1-cyclohexyl-2-[4-(4-hydroxy-butylamino)-2-phenyl-quinolin-6-yl]-1H-benzoimidazole-5-carboxylic acid]
inhibition at 33 µM [1]: 59.6%
inhibition at 100 µM: 92%

O=C(N[C@@H](Cc1ccc(O)cc1)C(=O)O)c1ccc2c(c1)nc(-c1ccc3nc(-c4ccccc4)cnc3c1)n2C1CCCCC1 [Compound 519, 2-{[1-Cyclohexyl-2-(2-phenyl-quinoxalin-6-yl)-1H-benzoimidazole-5-carbonyl]-amino}-3-(4-hydroxy-phenyl)-propionic acid]
inhibition at 33 µM [1]: 96.9%
inhibition at 100 µM: 99.1%

O=C(c1ccc2c(c1)nc(-c1cc3ccc(-c4ccccc4-c4ccc(Cl)cc4)nc3cc1F)n2C1CCCCC1)N1CCC(O)CC1 [Compound 514, {2-[2-(4′-Chloro-biphen-2-yl]-7-fluoro-quinolin-6-yl]-1-cyclohexyl-1H-benzoimidazol-5-yl}-(4-hydroxy-piperidin-1-yl)-methanone]
inhibition at 33 µM [1]: 89.6%
inhibition at 100 µM: 91.9%

O=C(NCCS(=O)(=O)O)c1ccc2c(c1)nc(-c1ccc3nc(-c4ccccc4)cnc3c1)n2C1CCCCC1 [Compound 524]
% inh@33 [1]: 74.09%
% inh@100 (enzyme inhibition at compound concentration of 100 uM): 93.58%

O=C(O)c1ccc2c(c1)nc(-c1ccc3nc(-c4cccc(Br)c4)ccc3c1)n2C1CCCCC1 [Compound 482, 2-[2-(3-bromo-phenyl)-quinolin-6-yl]-1-cyclohexyl-1H-benzoimidazole-5-carboxylic acid]
inhibition at 33 µM [1]: 100%
inhibition at 100 µM: 101%

COc1ccc(-c2ccc(N(C)C)cc2)c(-c2ccc3cc(-c4nc5cc(C(=O)O)ccc5n4C4CCCCC4)ccc3n2)c1 [Compound 401, 1-cyclohexyl-2-[2-(4′-dimethylamino-4-methoxy-biphen-2-yl)-quinolin-6-yl]-1H-benzoimidazole-5-carboxylic acid]
inhibition at 33 µM [1]: 100%
inhibition at 100 µM: 101%

COc1ccc(-c2ccc(Cl)cc2)c(-c2ccc3cc(-c4nc5cc(C(=O)O)ccc5n4CCN(C)C)ccc3n2)c1 [Compound 533, 2-[2-(4′-chloro-4-methoxy-biphen-2-yl)-quinolin-6-yl]-1-(2-dimethylamino-ethyl)-1H-benzoimidazole-5-carboxylic acid]
inhibition at 33 µM [1]: 56.8%
inhibition at 100 µM: 89.8%

CN(C)c1ccc(-c2nc3ccc(-c4nc5cc(C(=O)O)ccc5n4C4CCCCC4)cc3nc2-c2ccc(N(C)C)cc2)cc1 [Compound 458, 2-[2,3-Bis-(4-dimethylaminotphenyl)quinoxalin-6-yl]-1-cyclohexyl-1H-benzimidazole-5-carboxylic acid]
inhibition at 33 µM [1]: 100%
inhibition at 100 µM: 104%

O=C(O)CC[C@H](NC(=O)c1ccc2c(c1)nc(-c1ccc3nc(-c4ccccc4)ccc3c1)n2C1CCCCC1)C(=O)O [Compound 237, 2-{[1-Cyclohexyl-2-(2-phenyl-quinolin-6-yl)-1H-benzoimidazole-5-carbonyl]-amino}-pentanedioic acid]
inhibition at 33 µM [1]: 79.7%
inhibition at 100 µM: 95.6%

C[C@@H](O)[C@H](NC(=O)c1ccc2c(c1)nc(-c1ccc3nc(-c4ccccc4)cnc3c1)n2C1CCCCC1)C(=O)O [Compound 512, 2-{[1-Cyclohexyl-2-(2-phenyl-quinoxalin-6-yl)-1H-benzoimidazole-5-carbonyl]-amino}-3-hydroxy-butyric acid]
inhibition at 33 µM [1]: 78.9%
inhibition at 100 µM: 97.9%

Cc1ccc(-c2nc3ccc(-c4nc5cc(C(=O)O)ccc5n4C4CCCCC4)cc3nc2-c2ccc(C)cc2)cc1 [Compound 389, 1-Cyclohexyl-2-(2,3-di-p-tolylquinoxalin-6-yl)-1H-benzimidazole-5-carboxylic acid]
inhibition at 33 µM [1]: 99.9%
inhibition at 100 µM: 99.5%

O=C(O)c1ccc2c(c1)nc(-c1ccc3nc(CCCO)ccc3c1)n2C1CCCCC1 [Compound 392, 1-Cyclohexyl-2-[2-(3-hydroxy-propyl)-quinolin-6-yl]-1H-benzoimidazole-5-carboxylic acid]
inhibition at 33 µM [1]: 83.8%
inhibition at 100 µM: 93.5%

COc1ccc(-c2cccc(C(=O)O)c2)c(-c2ccc3cc(-c4nc5cc(C(=O)O)ccc5n4C4CCCCC4)ccc3n2)c1 [Compound 437, 2-[2-(3′-carboxy-4-methoxy-biphen-2-yl)-quinolin-6-yl]-1-cyclohexyl-1H-benzoimidazole-5-carboxylic acid]
inhibition at 33 µM [1]: 100%
inhibition at 100 µM: 101%

O=C(c1ccc(-c2ccc(Cl)cc2)c(-c2ccc3cc(-c4nc5cc(-c6nnn[nH]6)ccc5n4C4CCCCC4)ccc3n2)c1)N1CCCC1 [Compound 259, (4′-chloro-2-{6-[1-cyclohexyl-5-(1H-tetrazol-5-yl)-1H-benzoimidazol-2-yl]-quinolin-2-yl}-biphenyl-4-yl)-pyrrolidin-1-yl-methanone]
inhibition at 33 µM [1]: 99.7%
inhibition at 100 µM: 99.4%
